According to US20250320501A1, “PALMITOYLATION OF THE ALTERNATIVE AMINO TERMINUS OF THE BTK-C ISOFORM CONTROLS SUBCELLULAR DISTRIBUTION AND SIGNALING” (The Research Foundation for the State University of New York, priority 2022, published 2025):

Experiments:
[1] = test system: BTK-A and BTK-C; test: Activating phosphorylation of BTK isoforms after stimulation with other ligands; format: cell-based, human; settings: ligand stimulation (not shown)
[2] = biological target: T1, BTK-C (Homo sapiens, UniProt Q06187, M35A); test: Acyl incorporation assay (click chemistry after Flag immunoprecipitation), BTK-C; format: cell-based; settings: HEK293 cells co-expressing zDHHC5, 100 μM analogue for 4 h
T1 construct: cells expressing Flag-tagged, full-length versions of BTK-A and BTK-C; expressed in transfected cells; host or cells: HEK293
T1 sequence (Q06187 1-693 isoform Q06187-2 M35A): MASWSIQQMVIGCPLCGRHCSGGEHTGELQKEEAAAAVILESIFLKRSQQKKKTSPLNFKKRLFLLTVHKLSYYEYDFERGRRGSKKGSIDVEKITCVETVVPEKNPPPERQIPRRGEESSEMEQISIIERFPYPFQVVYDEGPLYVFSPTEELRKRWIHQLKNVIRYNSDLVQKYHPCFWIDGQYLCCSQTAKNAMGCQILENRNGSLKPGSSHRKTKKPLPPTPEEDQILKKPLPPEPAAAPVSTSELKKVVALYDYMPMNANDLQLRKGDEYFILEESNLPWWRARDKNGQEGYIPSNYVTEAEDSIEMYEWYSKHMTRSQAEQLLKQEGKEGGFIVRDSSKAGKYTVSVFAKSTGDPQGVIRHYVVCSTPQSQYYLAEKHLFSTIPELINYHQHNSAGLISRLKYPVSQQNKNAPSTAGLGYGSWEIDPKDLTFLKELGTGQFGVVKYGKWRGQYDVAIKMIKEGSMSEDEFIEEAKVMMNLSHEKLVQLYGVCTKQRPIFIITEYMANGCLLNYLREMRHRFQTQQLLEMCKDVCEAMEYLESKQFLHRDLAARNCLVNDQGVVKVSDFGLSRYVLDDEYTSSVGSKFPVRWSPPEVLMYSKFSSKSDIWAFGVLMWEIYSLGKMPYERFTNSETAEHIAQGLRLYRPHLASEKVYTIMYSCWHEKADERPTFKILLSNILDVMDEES
Description: (§1) FIG. 2A-D presents the BTK-C isoform palmitoylated: FIG. 2A presents a diagram of BTK isoform C-terminal Flag-tagged constructs: FIG. 2B presents an expression of Flag-tagged constructs in MDA-MB-231 cells; FIG. 2C presents detection scheme for acylated BTK isoforms. Cells were incubated with 17-ODYA. Flag immunoprecipitates were reacted with azide-activated biotinylation reagent and detected through reaction with streptavidin-linked horseradish peroxidase; and FIG. 2D presents HEK293 cells were transfected with 1 μg of BTK-A, BTK-C, or BTK-C C13A, C16A and 2 μg of a plasmid expressing zDHHC5. 24 h after transfection cells were incubated for 4 h with 100 μM palmitic acid alkyne (17-ODYA). Cell lysate supernatants were immunoprecipitated with Anti-Flag M2 affinity gel (Sigma) at 4° C. overnight, subjected to click chemistry with 20 μM biotin picolyl azide for 30 m at room temperature before electrophoresis and blotting.
Reporter construction and viral transgenesis: GFP fusion constructs were generated using a BTK pleckstrin homology domain fusion protein vector, PH-Btk-GFP (Addgene Plasmid #51463). BTK constructs (BTK-A R28C; BTK-C; BTK-C R28C; BTK-C C13A, C16A; BTK-C C13A,C16A,R28C) were generated in this plasmid using QuikChange site directed mutagenesis. The exon 1C sequence (FIG. 1B) was subcloned from the original cDNA isolate. To prevent internal translational initiation at the BTK-A ATG, this codon was changed to Ala in all BTK-C constructs. Production of either the 77 kDa BTK-A isoform or the 65 kDa p65BTK was not observed for BTK-C constructs. GFP reporters were subcloned into MARXIVpuro REV plasmid (22). Full-length mutant proteins were produced by subcloning into a BTK gene with a C-terminal Flag tag expressed from a MARXIVpuro REV vector. DNA sequence was confirmed by DNA sequence analysis for all constructs. ϕNX-Ampho cells were transfected with Flag-tagged versions of BTK as described. Empty vector was used as a control. A lentivirus-born shRNA targeting the chromosomal BTK 3′UTR TRCN0000000358 (Sigma-Aldrich, Saint Louis, MO) was used to silence endogenous BTK isoform expression such that each line predominantly expresses the wild-type or mutant version of the intended isoform. BTK acylation: HEK293 cells plated on 6 wells plates were transfected using X-tremeGENE HP transfection reagent (Sigma-Aldrich, Saint Louis, MO) with 1 μg of BTK-C, BTK-A, or BTK-C C13A, C16A with 2 μg of zDHHC5 plasmid. 24 hours after transfection, cells were incubated with 100 μM of palmitic acid alkyne (in DMEM with 1 mg/ml defatted BSA) for 4 h at 37° C. Cells were washed twice in PBS, then lysed on ice in 50 mM Tris HCl, pH 7.4 with 150 mM NaCl, 1 mM EDTA, 1% TRITON X-100 and protein inhibitors. […]

[3] = biological target: T2, BTK-A (Homo sapiens, UniProt Q06187); test: Acyl incorporation assay (click chemistry after Flag immunoprecipitation), BTK-A; format: cell-based; settings: HEK293 cells co-expressing zDHHC5, 100 μM analogue for 4 h
T2 construct: cells expressing Flag-tagged, full-length versions of BTK-A and BTK-C; expressed in transfected cells; host or cells: HEK293
T2 sequence (Q06187 whole entry): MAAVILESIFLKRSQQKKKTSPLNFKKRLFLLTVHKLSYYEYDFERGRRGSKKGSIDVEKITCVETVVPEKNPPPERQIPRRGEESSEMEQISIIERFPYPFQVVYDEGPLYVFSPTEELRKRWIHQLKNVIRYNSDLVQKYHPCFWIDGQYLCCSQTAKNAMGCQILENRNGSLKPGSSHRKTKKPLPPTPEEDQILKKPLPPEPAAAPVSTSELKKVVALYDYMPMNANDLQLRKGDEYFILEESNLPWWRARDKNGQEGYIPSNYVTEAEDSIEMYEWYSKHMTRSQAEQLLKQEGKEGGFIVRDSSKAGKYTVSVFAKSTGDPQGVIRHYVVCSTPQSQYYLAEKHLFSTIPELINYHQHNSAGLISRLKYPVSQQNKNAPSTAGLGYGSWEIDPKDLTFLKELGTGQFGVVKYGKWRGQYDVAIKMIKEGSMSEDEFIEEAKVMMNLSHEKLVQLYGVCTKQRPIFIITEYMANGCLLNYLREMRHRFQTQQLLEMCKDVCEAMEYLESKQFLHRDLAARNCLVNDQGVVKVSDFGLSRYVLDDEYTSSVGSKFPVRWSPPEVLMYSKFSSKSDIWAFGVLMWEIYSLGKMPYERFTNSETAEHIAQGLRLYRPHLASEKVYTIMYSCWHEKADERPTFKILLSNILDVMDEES
Description: as §1
Reporter construction and viral transgenesis: GFP fusion constructs were generated using a BTK pleckstrin homology domain fusion protein vector, PH-Btk-GFP (Addgene Plasmid #51463). BTK constructs (BTK-A R28C; BTK-C; BTK-C R28C; BTK-C C13A, C16A; BTK-C C13A,C16A,R28C) were generated in this plasmid using QuikChange site directed mutagenesis. The exon 1C sequence (FIG. 1B) was subcloned from the original cDNA isolate. […]

[4] = test system: breast cells; test: Toxicity of PI3K inhibition in breast cells; format: cell-based; settings: breast cells (not shown)
From the text: Regulation of BTK-C localization and activity by PIP3 levels: Activation of BTK-A in B cells has been extensively studied. Adsorption of BTK-A to the B cell plasma membrane is driven by binding to PIP3 which opens the BTK monomer conformation allowing dimerization, auto-activation (Y223 phosphorylation) and transactivation (Y551 phosphorylation). […] Mutation of the analogous arginine in BTK-C(R62 in BTK-C) causes it to fail to localize to the membrane (FIG. 3S). […] For example, MDA-MB-231 cells which are PTEN^+ display less plasma membrane staining when compared to SUM149 cells which are PTEN. […] This PIP3-dependent activation may occur through BTK-C dimer formation through juxtaposed membrane-bound PH domains as occurs with the BTK-A. Using an assay developed by Chung et al., co-transfecting BTK-C with the BTK-C-GFP construct which contains the PH domain but is missing the kinase domain reduces Y551 phosphorylation compared with vector or BTK-C only (FIG. 4D).

[5] = test system: LNCaP C42b prostate cancer cell line; test: Toxicity of PI3K inhibition in LNCaP C42b cells; format: cell-based; settings: PTEN- LNCaP C42b prostate cancer cell line, compared with breast cells
[6] = test system: BTK-A; test: Activating tyrosine phosphorylation of BTK-A after insulin stimulation (immunoblot densitometry); format: cell-based, human; settings: transfected HEK293 cells
Description: (§2) FIG. 5A-D present activating tyrosine phosphorylation of the BTK isoforms. BTK-A, BTK-C and BTK-C C13, C16 mutant constructs were transfected into HEK293 cell and after 24 hours stimulated with insulin. Values represent fold tyrosine-phosphorylated signal normalized to total BTK-A or BTK-C(anti-Flag) determined by densitometry; FIG. 5B presents phosphorylation of the BTK target tyrosine 759 of PLCγ2 in transfected HEK293 cells; FIG. 5C presents BTK-C expression increases proliferation rate of MDA-MB-231 (PTEN+) but not SUM149 (PTEN−) cells. Cells were seeded in 96 well plates and fixed with 4% formaldehyde and counted at 72 hours. Data were normalized to control and are presented as mean+SD. *p<0.05 using Student's ttest, n=3; and FIG. 5D presents BTK-C increases glucose uptake in MDA-MB-231 (PTEN+) but not SUM149 (PTEN−) cells. Cells were seeded and treated with 100 μM 2-NBDG for 15 min. Fluorescence images were acquired with an InCell 2200 and overall fluorescence intensity quantified. […]
(§3) Embodiment disclosed herein included the following materials and methods: Cell lines MD-AMB-231, BT549, SUM149, SKBr3 and ϕNX-AMPHO were obtained from the American Type Culture Collection (ATCC). […] In growth and uptake experiments, differences between control and treatment conditions were evaluated using Student's t test for pairwise comparisons. […]

[7] = test system: BTK-C; test: Activating tyrosine phosphorylation of BTK-C after insulin stimulation (immunoblot densitometry); format: cell-based, human; settings: transfected HEK293 cells
Description: as §2, §3

[8] = insulin stimulation under reduced serum conditions

Molecule: EGF: ligand used for stimulation of BTK activation (NSDSECPLSHDGYCLHDGVCMYIEALDKYACNCVVGYIGERCQYRDLKWWELR; UniProt P01133 971-1023, looked up)
- increase of activating phosphorylation levels above unstimulated levels [1]: only modestly

Molecule: CCCCCCCC/C=C\CCCCCCCC(=O)O [oleic acid]
- incorporation of acyl analogue label into BTK-C [2]: failed to observe incorporation

Molecule: CCCCC/C=C\C/C=C\C/C=C\C/C=C\CCCC(=O)O [arachidonic acid]
- incorporation of acyl analogue label into BTK-C [2]: failed to observe incorporation

Molecule: C#CCCCCCCCCCCCCCCCC(=O)O [17-ODYA, 17-octadecynoic acid]
- incorporation of acyl analogue label into BTK-C [2]: label is increased
- incorporation of acyl analogue label into BTK-A [3]: not

Molecule: C[C@H](Nc1ncnc2[nH]cnc12)c1cc2cccc(Cl)c2c(=O)n1-c1ccccc1 [IPI-145, Duvelisib]
- toxicity [4]: significant toxicity
- toxicity [5]: less toxicity

Molecule: CCCCCC/C=C\CCCCCCCC(=O)O [palmitoleic acid]
- incorporation of acyl analogue label into BTK-C [2]: failed to observe incorporation

Molecule: Insulin: common activator of PI3K in cancer cells
- transactivation (phosphorylation of BTK by its dimerized partner) of BTK-A ([6]; insulin stimulation (FIG. 5A)): largely unchanged
- increase of Y551 phosphorylation of BTK-A [6, 8]: two-fold
- transactivation (phosphorylation of BTK by its dimerized partner) of BTK-C ([7]; insulin stimulation (FIG. 5A)): largely unchanged
- increase of Y551 phosphorylation of BTK-C [7, 8]: ~24%
